One series deals with T1, CYP1A2 (Homo sapiens, UniProt P05177).
T1 construct: purchased Discovery Labware (BD/Gentest); host or cells: insect cell expression system (membrane fractions)
T1 sequence (P05177 2-516 limits assumed): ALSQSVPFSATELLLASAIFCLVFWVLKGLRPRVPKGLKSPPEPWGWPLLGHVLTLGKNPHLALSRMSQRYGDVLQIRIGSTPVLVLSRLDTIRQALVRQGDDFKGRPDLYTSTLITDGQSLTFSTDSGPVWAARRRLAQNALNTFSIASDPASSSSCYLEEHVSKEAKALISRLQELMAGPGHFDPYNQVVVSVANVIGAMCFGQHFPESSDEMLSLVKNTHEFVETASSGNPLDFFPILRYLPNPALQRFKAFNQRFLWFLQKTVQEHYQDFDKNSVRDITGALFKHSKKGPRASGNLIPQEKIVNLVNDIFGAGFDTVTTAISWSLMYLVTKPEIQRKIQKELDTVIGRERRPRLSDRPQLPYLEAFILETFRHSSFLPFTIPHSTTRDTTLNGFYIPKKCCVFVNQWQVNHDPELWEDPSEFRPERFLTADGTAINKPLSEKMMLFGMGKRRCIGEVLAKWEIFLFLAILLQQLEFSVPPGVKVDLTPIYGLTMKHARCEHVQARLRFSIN
The series is described as follows: Two-step luminescent P450 screen of luciferin derivatives. In kind it is biochemical. Particulars: 50 µM substrate, 1 pmole P450, result in words. As to the method: (§1) P450s are Supersomes™ purchased from Discovery Labware (BD/Gentest). […] HLM is human liver microsomes.
(§2) 1X substrate concentration: 50 µM.

The next series addresses T2, CYP2C9 (Homo sapiens, UniProt P11712).
T2 construct: purchased Discovery Labware (BD/Gentest); host or cells: insect cell expression system (membrane fractions)
Described as above. The class given is biochemical. Particulars: 50 µM substrate, 1 pmole P450, result in words. The method, then:
as §1, §2

A further series has as its target T3, CYP4A11 (Homo sapiens, UniProt Q02928).
T3 construct: purchased Discovery Labware (BD/Gentest); host or cells: insect cell expression system (membrane fractions)
T3 sequence (Q02928 5-519): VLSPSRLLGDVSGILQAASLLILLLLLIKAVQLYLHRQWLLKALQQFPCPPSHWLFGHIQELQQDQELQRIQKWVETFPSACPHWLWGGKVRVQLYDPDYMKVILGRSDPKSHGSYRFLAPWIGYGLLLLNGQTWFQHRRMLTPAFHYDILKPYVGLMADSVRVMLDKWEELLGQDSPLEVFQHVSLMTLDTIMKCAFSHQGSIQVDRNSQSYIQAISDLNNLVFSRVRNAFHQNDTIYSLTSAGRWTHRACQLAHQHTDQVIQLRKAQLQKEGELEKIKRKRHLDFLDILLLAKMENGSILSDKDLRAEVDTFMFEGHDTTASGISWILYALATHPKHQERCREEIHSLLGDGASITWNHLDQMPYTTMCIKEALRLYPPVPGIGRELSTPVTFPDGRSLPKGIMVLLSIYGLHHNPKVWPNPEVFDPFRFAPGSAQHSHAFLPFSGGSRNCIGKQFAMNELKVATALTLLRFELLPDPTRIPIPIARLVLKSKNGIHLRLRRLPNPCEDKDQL
Described as above. The class given is biochemical. Particulars: result in words. As to the method: as §1, §2

Another series concerns the target T4, CYP1A1 (Homo sapiens, UniProt P04798).
T4 sequence (P04798 1-512): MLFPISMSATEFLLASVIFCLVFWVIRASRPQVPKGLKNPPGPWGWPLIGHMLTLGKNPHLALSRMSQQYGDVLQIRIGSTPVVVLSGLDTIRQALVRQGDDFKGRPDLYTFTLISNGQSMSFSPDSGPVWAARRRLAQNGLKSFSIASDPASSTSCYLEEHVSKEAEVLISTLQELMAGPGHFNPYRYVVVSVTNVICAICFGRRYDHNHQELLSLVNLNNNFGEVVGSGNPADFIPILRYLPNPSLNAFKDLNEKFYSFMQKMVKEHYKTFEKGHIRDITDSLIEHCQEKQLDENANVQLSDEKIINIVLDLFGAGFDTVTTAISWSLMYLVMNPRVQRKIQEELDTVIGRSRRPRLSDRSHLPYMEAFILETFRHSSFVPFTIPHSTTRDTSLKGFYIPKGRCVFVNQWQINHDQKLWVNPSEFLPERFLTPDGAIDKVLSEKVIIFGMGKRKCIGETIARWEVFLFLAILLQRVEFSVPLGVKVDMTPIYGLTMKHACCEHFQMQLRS
The series is described as above. Particulars: 50 µM substrate, 1 pmole P450, 37°C 30 minutes; result in words.

The target in a further series is T5, CYP2C8 (Homo sapiens, UniProt P10632).
T5 sequence (P10632 1-490): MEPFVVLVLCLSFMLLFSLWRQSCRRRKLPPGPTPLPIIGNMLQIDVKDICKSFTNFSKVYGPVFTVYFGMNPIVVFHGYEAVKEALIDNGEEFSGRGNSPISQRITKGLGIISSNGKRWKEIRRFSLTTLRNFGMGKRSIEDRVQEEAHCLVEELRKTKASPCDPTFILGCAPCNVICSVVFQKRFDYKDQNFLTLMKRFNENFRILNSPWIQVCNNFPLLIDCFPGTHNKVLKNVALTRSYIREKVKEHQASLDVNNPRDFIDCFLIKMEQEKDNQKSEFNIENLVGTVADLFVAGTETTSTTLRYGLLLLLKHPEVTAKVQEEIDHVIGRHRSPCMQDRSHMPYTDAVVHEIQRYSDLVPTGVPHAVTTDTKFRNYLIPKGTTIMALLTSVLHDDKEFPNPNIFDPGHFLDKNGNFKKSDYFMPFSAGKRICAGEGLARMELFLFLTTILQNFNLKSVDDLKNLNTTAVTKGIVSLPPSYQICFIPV
The series is described as above. The settings on record: 50 µM substrate, 1 pmole P450, result in words.

Another series concerns the target T6, CYP2C19 (Homo sapiens, UniProt P33261).
T6 construct: purchased Discovery Labware (BD/Gentest); host or cells: insect cell expression system (membrane fractions)
The description is as above. In kind it is biochemical. The settings on record: for P450 activity / selectivity with the derivative as substrate: result in words. The method, then:
as §1, §2
(§3) For Figure 20, 1 or 5 picomoles of recombinant CYP2D6 or CYP2C19 membrane fractions from an insect cell expression system (SupersomesTM, Discovery Labware) were incubated at 37°C for 60 minutes with 200 µM D-luciferin 6' methyl ether (luciferin-ME) in 50 mM (CYP2C19) or 100 mM (CYP2D6) KPO4 (pH 7.4) with an NADPH regenerating system (as described above) in a volume of 50 µl. […] For Figure 20, the panel of human P450s was screened as described above.

The next series addresses T7, CYP2D6 (Homo sapiens, UniProt P10635).
T7 construct: purchased Discovery Labware (BD/Gentest); host or cells: insect cell expression system (membrane fractions)
Described as above. The class given is biochemical. Particulars: for P450 activity / selectivity with the derivative as substrate: result in words. The method, then:
as §1, §2, §3

Another series deals with T8, QuantiLum Luciferase (Photinus pyralis, UniProt P08659).
T8 construct: purchased Promega Corporation E170
The series can be described thus: Scaffolds: light emission of luciferin derivatives with QuantiLum luciferase alone, + Co A, + DTT, + Co A and DTT. In kind it is biochemical, firefly. The method, then:
The DTT, Coenzyme A, and QuantiLum stock solutions are the same as those described herein.
This solution was diluted 1:1 with water to produce an enzyme solution labeled "No addition." This solution was diluted 1:1 with 400 mM DTT, pH 8.0 to produce a solution labeled +DTT. This solution was diluted 1:1 with 4 mM Coenzyme A to produce a solution labeled + Co A. Finally, this solution was diluted 1:1 with a solution having both 4 mM Coenzyme A and 400 mM DTT to produce a solution labeled +Co A & DTT.
50 µl samples of these solutions were placed in the wells of luminometer microtiter plates, row A to row G, respeutivly. Row H of the plates was given 50 µl of water.
Reactions in these plates were initiated by addition of 50 µl of solution containing QuantiLum luciferase using a 12 channel micropipette. The solutions added to the rows were: columns 1, 5, and 9 - no addition solution; columns 2, 6, and 10 - + Co A solution; columns 3, 7, and 11 + DTT solution, and; columns 4, 8, and 12 - + Co A and DTT solution. After addition of the enzyme solution to the first row on every plate, a timer was started. After addition of the enzyme solution to the last row on each plate, the plate was sealed and read on a Veritas luminometer.

T7 sequence (P10635 whole entry): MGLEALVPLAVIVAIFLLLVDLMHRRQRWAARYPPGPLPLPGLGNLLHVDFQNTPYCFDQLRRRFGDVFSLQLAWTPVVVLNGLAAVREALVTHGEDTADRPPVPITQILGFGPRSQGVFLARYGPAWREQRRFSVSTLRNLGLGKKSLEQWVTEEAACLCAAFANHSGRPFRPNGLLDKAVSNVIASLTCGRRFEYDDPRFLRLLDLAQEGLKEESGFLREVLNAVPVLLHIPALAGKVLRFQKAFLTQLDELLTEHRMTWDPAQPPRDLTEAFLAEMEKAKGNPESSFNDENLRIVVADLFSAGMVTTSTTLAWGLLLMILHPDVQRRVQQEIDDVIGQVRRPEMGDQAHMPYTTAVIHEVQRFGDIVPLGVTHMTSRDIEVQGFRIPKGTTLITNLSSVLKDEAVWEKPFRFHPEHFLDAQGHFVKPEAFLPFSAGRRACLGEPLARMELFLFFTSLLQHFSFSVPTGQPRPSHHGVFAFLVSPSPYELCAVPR
T6 sequence (P33261 whole entry): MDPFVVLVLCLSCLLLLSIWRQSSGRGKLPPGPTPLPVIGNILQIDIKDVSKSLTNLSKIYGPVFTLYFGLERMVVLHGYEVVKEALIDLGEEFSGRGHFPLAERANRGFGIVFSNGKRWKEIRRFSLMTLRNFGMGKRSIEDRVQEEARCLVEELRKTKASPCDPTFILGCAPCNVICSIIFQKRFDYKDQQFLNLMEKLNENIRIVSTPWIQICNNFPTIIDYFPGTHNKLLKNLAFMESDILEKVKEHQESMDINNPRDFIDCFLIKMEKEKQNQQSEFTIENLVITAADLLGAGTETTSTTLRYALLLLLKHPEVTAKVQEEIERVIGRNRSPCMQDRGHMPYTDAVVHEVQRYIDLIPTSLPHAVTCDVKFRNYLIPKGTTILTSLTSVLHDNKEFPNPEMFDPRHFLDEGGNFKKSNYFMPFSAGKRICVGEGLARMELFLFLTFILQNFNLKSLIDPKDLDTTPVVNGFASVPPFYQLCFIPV
T8 sequence (P08659 whole entry): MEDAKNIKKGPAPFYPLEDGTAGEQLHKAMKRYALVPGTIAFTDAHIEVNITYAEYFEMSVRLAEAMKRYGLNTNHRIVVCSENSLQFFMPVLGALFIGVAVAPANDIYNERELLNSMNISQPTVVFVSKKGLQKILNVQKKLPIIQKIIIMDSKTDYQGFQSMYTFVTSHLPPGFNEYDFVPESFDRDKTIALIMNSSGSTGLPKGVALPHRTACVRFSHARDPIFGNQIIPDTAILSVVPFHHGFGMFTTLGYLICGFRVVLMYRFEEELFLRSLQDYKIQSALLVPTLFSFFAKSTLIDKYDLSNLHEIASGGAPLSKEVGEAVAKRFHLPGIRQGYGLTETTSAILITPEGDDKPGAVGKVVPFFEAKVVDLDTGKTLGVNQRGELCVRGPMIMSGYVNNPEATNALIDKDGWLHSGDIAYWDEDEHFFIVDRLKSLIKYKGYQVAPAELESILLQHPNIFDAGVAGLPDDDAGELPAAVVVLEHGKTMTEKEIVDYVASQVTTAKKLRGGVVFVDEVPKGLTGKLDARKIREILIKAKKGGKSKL
T2 sequence (P11712 whole entry): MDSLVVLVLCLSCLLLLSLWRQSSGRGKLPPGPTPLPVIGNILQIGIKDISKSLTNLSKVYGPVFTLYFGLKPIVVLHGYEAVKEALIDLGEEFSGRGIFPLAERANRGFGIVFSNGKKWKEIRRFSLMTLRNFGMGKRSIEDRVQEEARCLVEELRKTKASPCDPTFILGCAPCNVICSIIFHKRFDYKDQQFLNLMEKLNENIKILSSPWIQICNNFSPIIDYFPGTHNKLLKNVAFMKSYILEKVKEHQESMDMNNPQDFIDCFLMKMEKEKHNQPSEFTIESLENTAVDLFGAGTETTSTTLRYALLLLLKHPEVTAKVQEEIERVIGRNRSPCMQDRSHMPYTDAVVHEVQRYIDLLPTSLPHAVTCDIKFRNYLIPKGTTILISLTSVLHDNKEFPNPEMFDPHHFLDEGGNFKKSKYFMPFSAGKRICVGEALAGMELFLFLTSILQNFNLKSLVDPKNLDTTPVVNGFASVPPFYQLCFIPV

As to `COc1cc(OC)c2nc(C3=NC(C(=O)O)CS3)sc2c1` (centres unmarked) [4-(O-methyl)-6-(O-methyl)-luciferin], the “P450 activity / selectivity with the derivative as substrate” value (“P450 activity / selectivity” below) at CYP1A2 was “enhanced selectivity”; at CYP1A2 (listed as line 12) it was “preferred substrate”; at CYP2C9, “enhanced selectivity”; on CYP2C9 (listed as line 12), “preferred substrate”; on CYP4A11 it was “did not react”; on CYP1A1, “preferred substrate”. The “P450 activity / selectivity” value is recorded as “enhanced selectivity” at CYP2C8 and “preferred substrate” at CYP2C8 (listed as line 12).
`COC(=O)[C@H]1CSC(c2nc3ccc(OC)cc3s2)=N1` [carboxyl ester of luciferin-ME, carboxyl methyl ester of luciferin-ME]: the “P450 activity / selectivity” value on CYP2C19 is listed as “reacted strongly”; at CYP2D6 it was “substantially increased”.
Consider `COC(=O)[C@H]1CSC(c2nc3ccccc3s2)=N1` [carboxyl methyl ester of deoxyluciferin], for which the “P450 activity / selectivity” value at CYP2C19 is “substantial activity with CYP2C 19 and strong selectivity”.
In the case of `O=C(OCc1cccnc1)[C@H]1CSC(c2nc3ccccc3s2)=N1` [carboxyl picolinyl ester of luciferin-H, m-picolinyl ester of luciferin-H], the “P450 activity / selectivity” value at CYP1A2, at CYP1A1 and on CYP2C19 was “showed preference” in each case. The “signal when the esterase was not added, relative to the plus esterase signal” value at CYP2C19 (purified recombinant CYP2C19 substantially free of carboxylesterases, 2 step assay) is given as “less than 10%”.
As for `COc1ccc2nc(C3=N[C@@H](C(=O)O)CS3)sc2c1` [luciferin 6-methyl ether, D-luciferin 6' methyl ether, reference compound], the light emission values on QuantiLum Luciferase (Derivative Conc. 1.07, Alone) is on record as 1197; on QuantiLum Luciferase (Derivative Conc. 1.07, Co A), 1523; on QuantiLum Luciferase (Derivative Conc. 1.07, Co A + DTT), 3180; at QuantiLum Luciferase (Derivative Conc. 1.07, DTT), 3160; at QuantiLum Luciferase (Derivative Conc. 3.13, Alone) it was 1053; on QuantiLum Luciferase (Derivative Conc. 3.13, Co A), 1360. Also, the light emission values came to 2853 at QuantiLum Luciferase (Derivative Conc. 3.13, Co A + DTT); 3332 at QuantiLum Luciferase (Derivative Conc. 3.13, DTT); 1240 at QuantiLum Luciferase (Derivative Conc. 6.25, Alone); 1673 on QuantiLum Luciferase (Derivative Conc. 6.25, Co A); 2882 at QuantiLum Luciferase (Derivative Conc. 6.25, Co A + DTT); 2844 on QuantiLum Luciferase (Derivative Conc. 6.25, DTT). Moreover, the light emission values at QuantiLum Luciferase (Derivative Conc. 12.5, Alone) is 1563; at QuantiLum Luciferase (Derivative Conc. 12.5, Co A), 1768; on QuantiLum Luciferase (Derivative Conc. 12.5, Co A + DTT), 2510; on QuantiLum Luciferase (Derivative Conc. 12.5, DTT), 2961; on QuantiLum Luciferase (Derivative Conc. 25, Alone), 2083; at QuantiLum Luciferase (Derivative Conc. 25, Co A), 2224. In addition, the light emission values at QuantiLum Luciferase (Derivative Conc. 25, Co A + DTT) was 2992; at QuantiLum Luciferase (Derivative Conc. 25, DTT) it was 3491; at QuantiLum Luciferase (Derivative Conc. 50, Alone) it was 2690; at QuantiLum Luciferase (Derivative Conc. 50, Co A), 2704; at QuantiLum Luciferase (Derivative Conc. 50, Co A + DTT), 3635; at QuantiLum Luciferase (Derivative Conc. 50, DTT), 4052. Moreover, the light emission values at QuantiLum Luciferase (Derivative Conc. 100, Alone) was 3589; at QuantiLum Luciferase (Derivative Conc. 100, Co A) it was 3389; at QuantiLum Luciferase (Derivative Conc. 100, Co A + DTT), 4550; at QuantiLum Luciferase (Derivative Conc. 100, DTT), 5399. Further, the “P450 activity / selectivity” value on CYP2C19 is “some activity”; at CYP2D6, “extremely low activity”; at CYP2D6 (listed as Luciferin 6-methyl ether), “some activity”.
For `COc1ccc2nc(C3=NC(C(=O)OCc4cccnc4)CS3)sc2c1` (centres unmarked) [m-picolinyl ester of luciferin methyl ether], the “P450 activity / selectivity” value on CYP1A2, at CYP1A1 and at CYP2D6 was “showed a preference” each time. Moreover, the “signal when the esterase was not added, relative to the plus esterase signal” value at CYP2D6 (purified recombinant CYP2D6 substantially free of carboxylesterases, 2 step assay) is “less than 10%”.
